Assay results taken from PubChem BioAssay (NCI).
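Where inhibition never reached the appropriate level, the endpoint shown equals the highest concentration tested. Otherwise, values were interpolated linearly from a five-concentration, 48-hour dose response in 96-well plates. At the GI50, growth is halved. At the TGI there is no net growth.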

Legend:
Assay in all cases: DTP human tumour cell line panel, 48 h
[1] = test system: HL-60(TB) leukemia
[2] = test system: HOP-92 NSCLC
[3] = test system: KM12 colon
[4] = test system: NCI-H23 lung
[5] = test system: OVCAR-3 ovarian
[6] = test system: RXF 393 renal
[7] = test system: SN12C renal
[8] = test system: TK-10 renal
[9] = test system: U251 CNS
[10] = test system: DU-145 prostate

Compound: CC(C)CC1CC2C(=O)N(c3ccccc3)C(=O)C2c2[nH]c3ccccc3c21 (stereo unspecified)
- TGI [1]: > 31.6 µM
- TGI [2]: 41.8 µM
- TGI [3]: > 100 µM
- TGI [4]: > 80.8 µM
- TGI [5]: 42.7 µM
- TGI [6]: 44.9 µM
- TGI [7]: > 43.8 µM
- TGI [8]: > 40.1 µM
- TGI [9]: > 65 µM

Compound: CC(=O)CC(=O)Nc1ccc(OS(N)(=O)=O)cc1
- TGI [1]: > 100 µM
- TGI [2]: > 100 µM
- TGI [3]: > 100 µM
- TGI [4]: > 100 µM
- TGI [5]: > 100 µM
- TGI [6]: > 100 µM
- TGI [7]: > 100 µM
- TGI [8]: > 100 µM
- TGI [9]: > 100 µM

Compound: CC[C@@]1(O)C(=O)OCc2c1cc1n(c2=O)Cc2cc3c(N)c(OC)ccc3nc2-1
- GI50 [1]: 0.0266 µM
- TGI [1]: 0.187 µM
- GI50 [2]: 0.185 µM
- TGI [2]: 1.85 µM
- GI50 [3]: 0.292 µM
- TGI [3]: 2.24 µM
- GI50 [4]: 0.0213 µM
- TGI [4]: 0.142 µM
- GI50 [5]: 0.328 µM
- TGI [5]: 1.65 µM
- GI50 [6]: 0.0708 µM
- TGI [6]: 0.426 µM
- GI50 [7]: 0.0124 µM
- TGI [7]: 0.126 µM
- GI50 [8]: 2.26 µM
- TGI [8]: > 50 µM
- GI50 [9]: < 0.01 µM
- TGI [9]: 0.201 µM

Compound: O=C1C[C@@H]2[C@@H](C=CC23CCCC3)N1O
- TGI [1]: > 100 µM
- TGI [3]: > 100 µM
- TGI [4]: > 100 µM
- TGI [5]: > 100 µM
- TGI [6]: > 100 µM
- TGI [7]: > 100 µM
- TGI [8]: > 100 µM
- TGI [9]: > 100 µM

Compound: C[C@H]1CCC/C=C/[C@@H]2C[C@H](O)C[C@H]2[C@H](O)C(O)C(O)C(=O)O1 (stereo partly specified)
- GI50 [10]: 6.69 µM
- TGI [10]: > 100 µM
- GI50 [1]: 0.251 µM
- TGI [1]: 2.31 µM
- GI50 [3]: 0.396 µM
- TGI [3]: 1.38 µM
- GI50 [4]: 2.23 µM
- TGI [4]: > 100 µM
- GI50 [5]: 2.35 µM
- TGI [5]: 20.1 µM
- GI50 [6]: 2.52 µM
- TGI [6]: > 24.6 µM
- GI50 [7]: 2.66 µM
- TGI [7]: 7.63 µM
- GI50 [8]: 6.42 µM
- TGI [8]: > 100 µM
- GI50 [9]: 3.51 µM
- TGI [9]: > 100 µM

Compound: NNC(=S)N/N=C(\c1nc2ccc(Cl)cc2[nH]c1=O)C(O)c1cccc([N+](=O)[O-])c1 (stereo unspecified)
- TGI [1]: > 94.3 µM
- TGI [2]: > 100 µM
- TGI [3]: > 100 µM
- TGI [4]: > 61.9 µM
- TGI [5]: > 100 µM
- TGI [6]: > 100 µM
- TGI [7]: > 100 µM
- TGI [8]: > 100 µM
- TGI [9]: > 100 µM

Compound: COc1ccc(C2=NC(CO)[C@H](c3ccccc3)O2)cc1OC (stereo partly specified)
- TGI [1]: > 100 µM
- TGI [2]: > 100 µM
- TGI [3]: > 100 µM
- TGI [5]: > 100 µM
- TGI [7]: > 100 µM

Compound: CCOC(=O)N1C/C(=C\c2ccc(N(C)C)cc2)C(=O)/C(=C/c2ccc(N(C)C)cc2)C1
- TGI [1]: > 100 µM
- TGI [2]: > 100 µM
- TGI [3]: > 100 µM
- TGI [4]: > 100 µM
- TGI [5]: > 100 µM
- TGI [6]: > 100 µM
- TGI [7]: > 100 µM
- TGI [8]: > 100 µM
- TGI [9]: > 100 µM

Compound: NC(=O)c1c(-c2ccccc2)c(-c2ccccc2)cc2c(=O)c3ccccc3[nH]c12
- TGI [2]: 55.5 µM
- TGI [3]: 78.6 µM
- TGI [4]: 43.5 µM
- TGI [5]: 46.4 µM
- TGI [7]: > 100 µM
- TGI [8]: 35.6 µM
- TGI [9]: > 100 µM

Compound: CC[P+](C)(C)CC
- TGI [1]: > 100 µM
- TGI [2]: > 100 µM
- TGI [3]: > 100 µM
- TGI [4]: > 100 µM
- TGI [5]: > 100 µM
- TGI [6]: > 100 µM
- TGI [7]: > 100 µM
- TGI [8]: > 100 µM
- TGI [9]: > 100 µM

Compound: COc1cc(Br)c(C=Nc2cccc3ccc(OS(=O)(=O)c4ccc([N+](=O)[O-])cc4)cc23)cc1OC
- TGI [2]: > 100 µM
- TGI [3]: > 100 µM
- TGI [4]: > 100 µM
- TGI [5]: > 100 µM
- TGI [6]: > 100 µM
- TGI [7]: > 100 µM
- TGI [9]: > 100 µM

Compound: O=C1CC[C@@H]2[C@H]3CCC(=O)c4c3c(c3cccc(O)c3c4O)O[C@@]23C(=O)c2cccc(O)c2C(O)=C13
- GI50 [10]: > 100 µM
- TGI [10]: > 100 µM
- GI50 [1]: > 100 µM
- TGI [1]: > 100 µM
- GI50 [3]: > 100 µM
- TGI [3]: > 100 µM
- GI50 [4]: > 100 µM
- TGI [4]: > 100 µM
- GI50 [6]: > 100 µM
- TGI [6]: > 100 µM
- GI50 [7]: 61.4 µM
- TGI [7]: > 100 µM
- GI50 [8]: > 100 µM
- TGI [8]: > 100 µM
- GI50 [9]: > 100 µM
- TGI [9]: > 100 µM

Compound: N/N=C1\C(=O)N(c2ccc(Cl)c(Cl)c2)C(=O)C1C(=O)Nc1ccc(Cl)c(Cl)c1 (stereo unspecified)
- TGI [1]: > 100 µM
- TGI [2]: > 100 µM
- TGI [3]: > 100 µM
- TGI [4]: > 100 µM
- TGI [5]: > 100 µM
- TGI [6]: > 100 µM
- TGI [7]: > 100 µM
- TGI [8]: > 100 µM
- TGI [9]: > 100 µM

Compound: CN(COC(=O)C(C)(C)C)c1nc(N(C)COC(=O)C(C)(C)C)nc(N(C)COC(=O)C(C)(C)C)n1
- TGI [10]: > 100 µM
- TGI [1]: 63.6 µM
- TGI [3]: > 100 µM
- TGI [4]: > 100 µM
- TGI [5]: > 100 µM
- TGI [6]: 41.9 µM
- TGI [7]: > 100 µM
- TGI [8]: > 100 µM

Compound: Cc1c(C(=O)Nc2ccc(Oc3ccnc4cc(OCC(C)(C)O)ccc34)c(F)c2)c(=O)n(-c2ccccc2)n1C
- GI50 [2]: 1.88 µM
- TGI [2]: 22.2 µM
- GI50 [3]: 0.226 µM
- TGI [3]: > 100 µM
- GI50 [6]: 2.72 µM
- TGI [6]: > 100 µM
- GI50 [8]: 9.9 µM
- TGI [8]: > 100 µM
- GI50 [9]: 8.86 µM
- TGI [9]: > 100 µM
